Results taken from US12171744B2, “Pharmaceutical combinations for the treatment of cancer” (Presage Biosciences, Inc., priority 2016, dated 2024).

Experiments:
ICK = ICK (Homo sapiens, UniProt Q9UPZ9); test: Kinase inhibition profile; assay type: biochemical
SKM1 AML xenografts = test: Xenograft tumor growth; assay type: in vivo, NOD SCID; settings: Voruciclib 200 mpk PO, ABT 199 10 mpk PO, 6 on/1 off; by day 22
Protocol: Mice were enrolled for study when tumors reached an average volume of 150-200 mm^3. Tumor volume was calculated as V=length×width×height, all three dimensions measured using digital calipers along with body weight. Animals were removed from the study when—any one of the three measured dimensions of the tumor exceeding 2 cm, volume exceeding 2500 mm^3, ulceration or body weight loss greater than 20%.

U2932 model of DLBCL = test: Western blot of treated cells; assay type: cell-based; settings: increasing concentration of voruciclib, single agent
Protocol: Cell lines shown in Table 1, adherent or suspension, were treated in 6-well dishes or T10 flasks respectively, seeded at one million per ml density prior to treatment in total volumes of 3-10 ml. All agents used for in vitro cell treatments were formulated in water/DMSO to achieve required concentrations (as stated in respective figure labels/legends) with DMSO concentrations not exceeding 0.01%. Drug sources are indicated in table under ‘CIVO microinjection studies’. Cells were harvested at experimental time points: 2, 6, or 24 hours post treatment as indicated in respective figures, first by washing cells twice in ice-cold PBS in 15 ml falcon tubes, centrifugation at 1000 rpm for 5 mins followed by lysis of the respective cell pellets as described in section below. Note: Drug resistant NUDHL1 Dox 1000 nM and Toledo Dox 1000 nM cell lines were generated at Presage by culturing parental lines in media with stepwise increments in Doxorubicin concentration over several passages. […]
Protein lysates were prepared by adding ice-cold 1×RIPA Buffer (from 10×, Millipore) with 1×-3× Halt protease and phosphatase inhibitor cocktail (100×, Pierce) to cell pellets, followed by pulse sonication (˜3-5 secs) three times. […] Protein samples were quantified using Bradford assay (Biorad) at 1:10 or higher dilutions using appropriate blank controls with 1×RIPA. […]

RIVA cells = test: CIVO microinjection, CC3 expression; set-up: species or system mice; settings: mouse, in vivo
Protocol: (§1) Mice were enrolled into CIVO drug studies when the tumor volume reached approximately 1000 mm^3. Microinjection studies were performed using the CIVO device as previously described (Klinghoffer et al, Science Translational Medicine 2015) The device was configured with 6 injection needles set for a 6 mm injection length and a total volume delivery of 3 μl. A fluorescent tracking marker (FTM) was added to each drug reservoir in vehicle for delivery along with each drug or drug combination. All micro-doses were equivalent to or lower than what would be allowed under FDA guidelines for Exploratory IND (Investigational New Drug) studies and by solubility of drug into vehicle. Total amounts of agents injected are tabulated below in Table 4.

Toledo cells = test: CIVO microinjection, CC3 expression; set-up: species or system mice; settings: mouse, in vivo
Protocol: as §1

CDK9 = CDK9 (Homo sapiens, UniProt P50750); test: Kinase inhibition profiling (filter binding assay with γ-33P-ATP)
Protocol: The testing facility was Reaction Biology Corp. Kinase activity was measured using a filter binding assay with radioactive γ-33P-ATP as phosphate donor. The ATP concentration was near the Km for respective kinase. For each kinase, an IC50 value were calculated from a 10-point concentration curve of the test article and converted to Ki values.

[1] = tested on: RIVA (activated B-cell, or ABC) model of DLBCL; test: Xenograft tumor growth; assay type: in vivo, NOD SCID mice; settings: Voruciclib 200 mpk, Venetoclax 1 mpk
Protocol: Immune deficient NOD SCID mice were implanted with the RIVA (activated B-cell, or ABC) model of DLBCL. The xenografted tumors were allowed to grow in the NOD SCID host until they reached 200 mm^3, at which point the xenografted animals were randomized into 4 study groups: 1. Vehicle control; 2. […] Venetoclax at 1 mpk; and 4. […] Venetoclax was dosed by oral gavage on days 1 and 4 of each weekly cycle. Drug effects were assessed via tumor volume measurements twice weekly by a technician blinded to the treatment of each subject in the study. N=5-6 animals per treatment arm.

HCC1187 cells = test: PCR assay of XBP1 transcription; assay type: cell-based; settings: Voruciclib 1.5 uM, Bortezomib 10 nM, 4 hours
Protocol: 1 ug of mRNA from each condition was used to generate cDNA using the High Capacity cDNA Reverse Transcription Kit (Applied Biosystems) and manufacturer's protocol. 100 ng cDNA was used to conduct a PCR assay to amplify XBP1 u or splice forms (Thermofisher PCR Supermix)—94 deg C. for 2 mins, (94 deg C. for 15 secs, 55 deg C. for 30 secs, 72 deg C. for 1 min)×30 cycles, 72 deg C. for 7 mins, hold at 4 deg C. XBP1 spiced and unspliced variants were detected.

Sequence of ICK (Q9UPZ9 whole entry): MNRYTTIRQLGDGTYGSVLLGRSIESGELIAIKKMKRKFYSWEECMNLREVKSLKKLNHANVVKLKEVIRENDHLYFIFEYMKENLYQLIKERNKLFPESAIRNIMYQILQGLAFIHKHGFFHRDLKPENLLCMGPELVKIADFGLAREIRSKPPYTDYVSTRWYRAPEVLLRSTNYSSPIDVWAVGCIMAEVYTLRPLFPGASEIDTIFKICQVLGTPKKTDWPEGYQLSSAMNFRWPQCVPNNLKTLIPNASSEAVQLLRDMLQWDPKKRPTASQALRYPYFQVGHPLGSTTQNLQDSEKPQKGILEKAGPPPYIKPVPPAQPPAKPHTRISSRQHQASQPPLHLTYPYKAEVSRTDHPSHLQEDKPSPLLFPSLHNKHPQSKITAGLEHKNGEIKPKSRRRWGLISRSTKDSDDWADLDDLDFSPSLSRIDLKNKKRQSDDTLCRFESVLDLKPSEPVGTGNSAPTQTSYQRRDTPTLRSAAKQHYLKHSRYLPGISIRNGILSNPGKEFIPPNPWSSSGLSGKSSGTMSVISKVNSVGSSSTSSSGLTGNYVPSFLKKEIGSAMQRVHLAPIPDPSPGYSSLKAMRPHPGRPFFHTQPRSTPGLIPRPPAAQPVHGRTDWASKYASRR
Sequence of CDK9 (P50750 whole entry): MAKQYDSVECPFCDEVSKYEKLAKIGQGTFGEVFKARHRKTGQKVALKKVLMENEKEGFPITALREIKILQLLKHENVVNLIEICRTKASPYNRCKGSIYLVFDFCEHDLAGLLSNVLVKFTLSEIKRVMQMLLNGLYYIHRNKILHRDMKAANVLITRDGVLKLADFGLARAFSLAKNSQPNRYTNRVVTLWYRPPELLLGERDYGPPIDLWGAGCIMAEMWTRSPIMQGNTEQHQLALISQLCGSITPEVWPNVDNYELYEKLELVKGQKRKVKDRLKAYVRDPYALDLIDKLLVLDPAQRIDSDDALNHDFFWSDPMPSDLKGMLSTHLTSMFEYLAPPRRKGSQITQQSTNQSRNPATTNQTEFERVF
Sequence of CDK9 (O60563 whole entry partner): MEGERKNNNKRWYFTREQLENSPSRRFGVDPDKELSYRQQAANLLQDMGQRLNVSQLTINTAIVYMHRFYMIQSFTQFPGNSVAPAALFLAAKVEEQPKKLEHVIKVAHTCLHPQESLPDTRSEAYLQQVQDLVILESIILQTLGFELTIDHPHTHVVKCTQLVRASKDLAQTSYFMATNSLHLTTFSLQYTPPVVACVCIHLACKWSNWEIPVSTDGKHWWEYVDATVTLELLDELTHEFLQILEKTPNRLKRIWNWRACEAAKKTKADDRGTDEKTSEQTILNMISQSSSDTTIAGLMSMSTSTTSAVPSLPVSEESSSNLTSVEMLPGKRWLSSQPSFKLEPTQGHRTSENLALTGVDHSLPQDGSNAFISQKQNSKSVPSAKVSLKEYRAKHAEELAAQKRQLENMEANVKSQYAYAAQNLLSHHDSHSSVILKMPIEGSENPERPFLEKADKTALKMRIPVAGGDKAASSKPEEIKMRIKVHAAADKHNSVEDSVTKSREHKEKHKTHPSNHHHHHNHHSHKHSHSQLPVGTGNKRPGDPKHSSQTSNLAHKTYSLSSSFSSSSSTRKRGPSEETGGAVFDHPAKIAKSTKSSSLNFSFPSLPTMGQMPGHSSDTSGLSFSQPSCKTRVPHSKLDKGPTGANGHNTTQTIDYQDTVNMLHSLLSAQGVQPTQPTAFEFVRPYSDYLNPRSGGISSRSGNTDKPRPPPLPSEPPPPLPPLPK

inhibition of ICK (ICK): does not show potent inhibition
inhibition of CDK9 (CDK9): strongest inhibition
Structure (SMILES): CN1CC[C@@H](c2c(O)cc(O)c3c(=O)cc(-c4ccc(C(F)(F)F)cc4Cl)oc23)[C@@H]1CO (relative stereo) [voruciclib, (+)-trans-2-(2-Chloro-4-trifluoromethylphenyl)-5,7-dihydroxy-8-(2-hydroxymethyl-1-methylpyrrolidin-3-yl)-chromen-4-one]
normalized tumor volume (SKM1 AML xenografts): slightly lower
MCL-1 (U2932 model of DLBCL): suppresses
apoptosis (cPARP) (U2932 model of DLBCL): increases as the concentration of voruciclib increases
CC3 expression (RIVA cells): slight effect
CC3 expression (Toledo cells): slight effect
tumor size (images) [1]: smaller
average tumor volume ([1]; oral gavage): decrease in tumor volume
bortezomib-induced transcriptional induction of XBP1 (HCC1187 cells): decreased
